Laboratory results reported in patent US20230013336A1, “SYNECHOCOCCUS ELONGATUS MUTANTS, VARIANTS AND USES THEREOF TO PRODUCE AN ESSENTIAL AMINO ACID” (Purdue Research Foundation, priority 2021, published 2023).

Tested on: PCC 11801
Test: MMS mutagenesis kill rate
Format: cell-based, Synechococcus elongatus sp. PCC 11801
Details: 1% (v/v) MMS for 90 seconds, quenched with 5% sodium thiosulfate
Method: Random mutagenesis was performed by modifying a previously described protocol (Deshpande et al. (2020), infra) with methylmethanesulfonate (MMS) and ultra-violet (UV) irradiation as the mutagens. Cells were prepared for random mutagenesis by pelleting exponentially growing cultures (OD ˜0.6-1) of PCC 11801 and resuspending in 1 mL of fresh BG-11M media.
For MMS mutagenesis, 1% (v/v) MMS (Sigma-Aldrich, St. Louis, Mo.) was added for 90 seconds, and the reaction was quenched by the addition of 5% (w/w) sodium thiosulfate solution to yield a ˜85-95% kill rate. For UV mutagenesis, the culture was subjected to 90 seconds of UV light to yield a kill rate of ˜90%.
The mutagenized cultures were incubated at 38° C. overnight in the dark before selection. To select for overproducers, the phenylalanine (Phe) analog 3-(2-thienyl)-dl-alanine (Sigma-Aldrich, St. Louis, Mo.) was applied to BG-11M agar plates in concentrations ranging from 0.5-2 mg/ml. The wild-type and mutagenized cultures were diluted and spread on BG-11M (to test kill rate) and BG-11M analog-containing plates, and were incubated at 38° C. until colonies appeared. Colonies (i.e. variant Synechococcus elongatus sp. strains) that successfully grew on analog selection plates were picked (e.g., selected) and re-streaked on selective plates for at least three rounds to enable complete segregation of mutations.

Question: How did the kill rate turn out when `COS(C)(=O)=O` [MMS, methylmethanesulfonate] was run?
Answer: The kill rate was 85-95%.
